# Experiments:
# [1] = test system: Mixed bacteria: equal mixture of Staphylococcus aureus (ATCC No. 6538), Pseudomonas aeruginosa (ATCC No. 9027), and Escherichia coli (ATCC No. 8739); assay: Synergy at Day 14 (Kull method, QA/Qa+QB/Qb) from mixed bacteria challenge test; assay type: cell-based; conditions: DHA alone
# Experimental: A synergistic effect is a response to a combination of two or more components that produce an effect greater than the sum of their individual effects. […] E. Kull et al., “Mixtures of Quaternary Ammonium Compounds and Long-chain Fatty Acids as Antifungal Agents”, Applied Microbiology, 9:538-541 (1961). The synergism value is determined by the formula: […]
# where QA is the quantity of Compound A in mixture, producing an endpoint; Qa is the quantity of Compound a acting alone, producing an endpoint; QB is the concentration of Compound B in the mixture, producing an endpoint. Qb is the concentration of Compound b acting alone, producing an endpoint.
# When the value of (QA/Qa+QB/Qb) is less than one, the mixture is synergistic. Values for (QA/Qa+QB/Qb) of 1 and greater than 1, represent an additive effect and an antagonistic effect, respectively. According to this method of measuring synergism, the quantity of each component in the various mixtures is compared with the quantity of pure component that is required to reach the same endpoint or to produce the same microbiological effect as the mixture. […]
# [2] = test system: Mixed bacteria: equal mixture of Staphylococcus aureus (ATCC No. 6538), Pseudomonas aeruginosa (ATCC No. 9027), and Escherichia coli (ATCC No. 8739); assay: Preservative challenge test against mixed bacteria in anionic protein shampoo; assay type: cell-based
# Experimental: Mixed bacteria challenge tests were performed by adding approximately 1-5×10^6 organisms per gram of formulation, the organisms comprising an equally divided mixture of Staphylococcus aureus (ATCC No. 6538), Pseudomonas aeruginosa (ATCC No. 9027), and Escherichia coli (ATCC No. 8739) incubated at 36° C. on nutrient agar […] 24 hours prior to testing. The test samples were incubated at 23° C. (room temperature) for the number of days indicated, after which an aliquot of the sample was taken and diluted stepwise to a 10^6 fold reduction in concentration. The diluted samples were plated out on tryptic soy agar and incubated for 48 hours at 36° C. After incubation, readings of the total number of colony forming units per gram (cfu/g) were made on the samples. Table 3 illustrates the levels at which the individual components Glydant®2000 and DHA are effective and ineffective against bacteria.
# [3] = 0.150% preservative as supplied
structure (smiles),measurement,setting,value
"CC(=O)C1C(=O)C=C(C)OC1=O (stereo not shown) [DHA, dehydroacetic acid]","Qb (concentration of Compound b acting alone, producing an endpoint)",[1],0.2%
same,Day 0 cfu/g.,[2]; [3],3.0 × 10^6 cfu/g
same,Day 7 cfu/g.,[2]; [3],8.0 × 10^3 cfu/g
same,Day 14 cfu/g.,[2]; [3],1.0 × 10^6 cfu/g
same,Day 0 cfu/g.,[2]; 0.20% preservative as supplied,3.0 × 10^6 cfu/g
same,Day 7 cfu/g.,[2]; 0.20% preservative as supplied,1.0 × 10^3 cfu/g
same,Day 14 cfu/g.,[2]; 0.20% preservative as supplied,<10 cfu/g

# Source: patent publication US20040102501A1, “Stable, low free formaldehyde, synergistic antimicrobial compositions of aldehyde donors and dehydroacetic acid” (priority 2002, published 2004)
